# Columns and labels:
# Male Sprague Dawley rats [1] = assay: Rat morphine antinociceptive tolerance study (osmotic minipump, tail flick test); assay type: in vivo
# Male Sprague Dawley rats [2] = assay: Acute antinociceptive interaction with acute morphine (tail flick); assay type: in vivo, rat; settings: IB-MECA 0.3 mg/kg i.p. 15 min before morphine 3 mg/kg i.p.
# [3] = Solubility in EtOH on preparing the dosing solution; settings: 5 mg dissolved in 5 ml EtOH
# Male Balb/c mice = assay: Naloxone-precipitated withdrawal in morphine dependent mice; assay type: in vivo, mouse; settings: IB-MECA 0.1 mg/kg with three day morphine regimen
# Procedure: Male Balb/c mice (19-26 g) were purchased from University of Adelaide Laboratory Animal Services (Waite Campus, Adelaidem South Australia) and housed 6 per individually ventilated cage (IVC) and maintained in controlled environment (12 h light/dark cycle) with food and water available ad libitum.
# A group of control mice (n=7 per strain) received an equal number of saline injections over 3 days.
# EtOH was maintained at 0.02% final drug preparation. Vehicle was 0.02% EtOH in normal saline.
# Immediately after the naloxone injection, animals were placed into individual Plexiglas observation cylinders (25 h×11 w cm) (Nalgene, Scoresby, VIC, Australia). Withdrawal jumping response symptoms were recorded and the frequency of jumps for each mouse was summed over 30 min. Other characteristic opioid withdrawal behaviors were also recorded such as front paw shakes and hunched/prayer postures. All testing was conducted blind to group assignment.
# A1AR [4] = biological target: T1, A1AR (Mus musculus, UniProt Q60612); assay: Radioligand binding, membranes of HEK293 cells stably expressing mA1AR; settings: for inhibition at 10 µM: read-out: % inhibition A1; for Ki: species m, n 3-4, read-out: affinity (KV nM) A1
# T1 construct: expressed in transfected cells
# T1 sequence (Q60612 1-326): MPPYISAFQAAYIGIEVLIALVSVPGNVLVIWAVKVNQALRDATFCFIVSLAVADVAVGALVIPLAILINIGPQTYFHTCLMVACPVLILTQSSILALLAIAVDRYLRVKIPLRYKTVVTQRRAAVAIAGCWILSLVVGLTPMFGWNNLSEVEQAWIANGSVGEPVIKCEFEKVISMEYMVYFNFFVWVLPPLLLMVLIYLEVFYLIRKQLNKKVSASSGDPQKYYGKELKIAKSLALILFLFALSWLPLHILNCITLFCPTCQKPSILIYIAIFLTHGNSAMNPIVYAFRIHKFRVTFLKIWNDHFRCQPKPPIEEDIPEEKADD
# A1AR [5] = biological target: T2, A1AR (Homo sapiens, UniProt P30542); settings: species h; inhibition of binding at 10 μM; tested in ref 26; cited from earlier work
# T2 construct: expressed in transfected cells
# T2 sequence (P30542 1-326): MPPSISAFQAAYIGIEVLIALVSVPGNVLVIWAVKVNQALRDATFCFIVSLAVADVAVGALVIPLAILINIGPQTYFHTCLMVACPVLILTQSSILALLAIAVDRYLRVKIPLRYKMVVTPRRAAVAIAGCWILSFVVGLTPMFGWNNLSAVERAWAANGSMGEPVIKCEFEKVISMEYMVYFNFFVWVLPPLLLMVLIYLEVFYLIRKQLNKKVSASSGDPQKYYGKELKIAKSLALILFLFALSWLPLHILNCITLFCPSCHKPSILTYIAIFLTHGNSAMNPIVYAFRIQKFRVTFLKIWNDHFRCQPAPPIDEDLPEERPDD
# hA3AR = biological target: T3, hA3AR (Homo sapiens, UniProt P0DMS8); assay: cAMP assay, inhibition of forskolin-stimulated cAMP in hA3AR-transfected CHO cells; assay type: cell-based; settings: for Emax at 10 µM: CHO, read-out: % efficacy, A3
# T3 construct: expressed in transfected cells
# T3 sequence (P0DMS8 1-318): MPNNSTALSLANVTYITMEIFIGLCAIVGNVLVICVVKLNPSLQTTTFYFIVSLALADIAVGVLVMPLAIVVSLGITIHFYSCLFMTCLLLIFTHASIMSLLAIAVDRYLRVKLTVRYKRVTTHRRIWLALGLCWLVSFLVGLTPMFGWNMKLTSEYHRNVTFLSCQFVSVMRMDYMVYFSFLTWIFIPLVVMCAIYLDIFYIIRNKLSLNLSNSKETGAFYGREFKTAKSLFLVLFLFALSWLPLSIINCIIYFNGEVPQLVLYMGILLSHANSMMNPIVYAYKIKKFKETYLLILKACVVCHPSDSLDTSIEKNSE
# A2AAR [6] = biological target: T4, A2AAR (Mus musculus, UniProt Q60613); assay: Radioligand binding, membranes of HEK293 cells stably expressing mA2AAR; settings: read-out: % inhibition A2A
# T4 construct: expressed in transfected cells
# A3AR [7] = biological target: T5, A3AR (Mus musculus, UniProt Q61618); assay: Radioligand binding, membranes of HEK293 cells stably expressing mA3AR; settings: species m; n 3-4; read-out: affinity (KV nM) A3
# T5 construct: expressed in transfected cells
# T5 sequence (Q61618 1-319): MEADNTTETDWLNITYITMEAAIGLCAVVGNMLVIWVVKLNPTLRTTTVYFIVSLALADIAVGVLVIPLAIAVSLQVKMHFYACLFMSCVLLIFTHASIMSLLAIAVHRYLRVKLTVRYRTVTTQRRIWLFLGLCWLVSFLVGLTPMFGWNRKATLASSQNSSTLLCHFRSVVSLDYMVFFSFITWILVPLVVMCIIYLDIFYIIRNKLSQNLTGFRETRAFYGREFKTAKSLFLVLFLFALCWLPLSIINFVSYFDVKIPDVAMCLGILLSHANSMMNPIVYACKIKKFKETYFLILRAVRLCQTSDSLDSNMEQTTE
# A1AR [8] = biological target: T2, A1AR; assay: Radioligand binding, membranes of CHO cells stably expressing hA1AR
# A2AAR [9] = biological target: T6, A2AAR (Homo sapiens, UniProt P29274); assay: Radioligand binding, membranes of HEK293 cells stably expressing hA2AAR; settings: read-out: % inhibition A2A
# T6 construct: expressed in transfected cells
# A3AR [10] = biological target: T7, A3AR (Homo sapiens, UniProt P0DMS8); assay: Radioligand binding, membranes of CHO cells stably expressing hA3AR; settings: species h; agonist radioligand 42; n 3-4; read-out: affinity (KV nM) A3
# T7 construct: expressed in transfected cells
# T7 sequence (P0DMS8 1-318): T3 sequence (P0DMS8 1-318)
# mA3AR = biological target: T8, mA3AR (Mus musculus, UniProt Q61618); assay: cAMP assay, inhibition of forskolin-stimulated cAMP in mA3AR-transfected HEK cells; assay type: cell-based; settings: HEK293; read-out: % efficacy, A3
# T8 construct: expressed in transfected cells
# T8 sequence (Q61618 1-319): T5 sequence (Q61618 1-319)
# A2AAR [11] = biological target: T6, A2AAR; settings: species h, tested in ref 26, cited from earlier work; for % inhibition A2A: inhibition of binding at 10 μM
# T6 sequence (P29274 whole entry): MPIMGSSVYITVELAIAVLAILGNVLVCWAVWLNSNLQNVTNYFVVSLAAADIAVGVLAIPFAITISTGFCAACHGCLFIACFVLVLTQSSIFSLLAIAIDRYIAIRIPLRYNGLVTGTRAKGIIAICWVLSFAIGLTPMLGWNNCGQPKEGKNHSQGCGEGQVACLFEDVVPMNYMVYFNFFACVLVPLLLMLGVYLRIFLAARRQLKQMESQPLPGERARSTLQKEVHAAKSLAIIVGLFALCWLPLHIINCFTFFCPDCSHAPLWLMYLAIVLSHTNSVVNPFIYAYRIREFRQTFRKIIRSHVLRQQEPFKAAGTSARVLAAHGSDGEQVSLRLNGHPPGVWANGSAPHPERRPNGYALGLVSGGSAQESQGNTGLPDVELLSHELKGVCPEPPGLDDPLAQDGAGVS
# T4 sequence (Q60613 whole entry): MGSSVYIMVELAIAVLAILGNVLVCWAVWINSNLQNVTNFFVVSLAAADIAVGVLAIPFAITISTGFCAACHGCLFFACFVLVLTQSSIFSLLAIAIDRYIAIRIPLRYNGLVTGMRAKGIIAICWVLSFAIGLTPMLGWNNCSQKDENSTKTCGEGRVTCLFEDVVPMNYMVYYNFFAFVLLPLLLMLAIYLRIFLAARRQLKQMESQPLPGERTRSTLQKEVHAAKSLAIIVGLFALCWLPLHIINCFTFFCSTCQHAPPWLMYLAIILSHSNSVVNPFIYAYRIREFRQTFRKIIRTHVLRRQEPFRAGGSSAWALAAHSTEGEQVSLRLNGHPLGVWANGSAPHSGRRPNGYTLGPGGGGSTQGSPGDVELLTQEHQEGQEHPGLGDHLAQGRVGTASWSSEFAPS
Compound,inhibition at 10 µM (A2AAR [6]) [%],Ki (A3AR [7]) [nM],Ki (A1AR [4]) [nM],Emax at 10 µM (hA3AR) [%],% inhibition A1 (A1AR [5]),% inhibition A2A (A2AAR [11]),further results
"CNC(=O)[C@H]1O[C@@H](n2cnc3c(NCc4cccc(I)c4)ncnc32)[C@H](O)[C@@H]1O [IB-MECA, N^6-(3-iodobenzyl)-adenosine-5′-N-methyluronamide]",–,–,–,–,–,–,"development of morphine-induced antinociceptive tolerance (Male Sprague Dawley rats [1]; IB-MECA i.p. daily during 7 day s.c. morphine infusion, tail flick 30 min after acute morphine, day 3 and 6, n=2): blocked the development of morphine-induced antinociceptive tolerance; effect on baseline tail flick latency (Male Sprague Dawley rats [1]; given alone daily over 6 days to rats that received saline infusion): had no effect on baseline tail flick latency; potentiation of antinociceptive responses to acute morphine (Male Sprague Dawley rats [2]): did not potentiate the antinociceptive responses to acute morphine; antinociception after acute morphine with IB-MECA pretreatment (Male Sprague Dawley rats [2]; at 30 min): 35+5 % antinociception; solubility in EtOH [3]: soluble; less naloxone-precipitated jumping vs morphine dependent mice receiving vehicle (Male Balb/c mice; 95% CI 1 to 17): 9 jumps/30 min; less episodes of hunched/prayer posture vs morphine dependent mice receiving vehicle (Male Balb/c mice; 95% CI 3 to 7, 30 minute observation): 5 episodes; less bouts of front paw shakes vs morphine dependent mice receiving vehicle (Male Balb/c mice; 95% CI 5 to 15): 10 bouts of front paw shakes/30 min"
CNC(=O)[C@@]12C[C@@H]1[C@@H](n1cnc3c(NCc4cccc(Cl)c4)nc(C#Cc4ccccc4)nc31)[C@H](O)[C@@H]2O [Compound 5],2,1.23 ± 0.14,–,–,(20% ± 3%),–,"inhibition at 10 µM (A1AR [4]): 50%; % efficacy, A3 (hA3AR; species h, percentage of maximal effect of 5′-N-ethylcarboxamidoadenosine 43, each at 10 μM, mean ± SEM): 101 ± 5.9%"
CNC(=O)[C@@]12C[C@@H]1[C@@H](n1cnc3c(NCc4cccc(Cl)c4)nc(C#Cc4cccc(S(=O)(=O)O)c4)nc31)[C@H](O)[C@@H]2O [Compound 7],1,11.3 ± 1.9,–,98.2 ± 6.7,–,–,inhibition at 10 µM (A1AR [8]; read-out: % inhibition A1): 16%; inhibition at 10 µM (A2AAR [9]): 7%; inhibition at 10 µM (A1AR [4]): 15%; Ki (A3AR [10]): 1.9 ± 0.03 nM; Emax (mA3AR): 89.3 ± 7.1%
OC1C(O)C(n2cnc3c(NCc4cccc(Cl)c4)nc(C#Cc4cccc(Cl)c4)nc32)C2CC12 (stereo not drawn) [Compound 12],–,–,–,–,–,–,"Ki (A2AAR [11]; agonist radioligand 41, read-out: affinity (KV nM) A2A): 1800 ± 310 nM"

# Continued, in another order:
inhibition at 10 µM (A2AAR [6]) [%],Ki (A3AR [7]) [nM],Ki (A1AR [4]) [nM],Emax at 10 µM (hA3AR) [%],Compound,% inhibition A1 (A1AR [5]),% inhibition A2A (A2AAR [11]),further results
14,9.68 ± 0.15,35.1 ± 5.5,96.8 ± 5.7,CNC(=O)[C@@]12C[C@@H]1[C@@H](n1cnc3c(NCc4cccc(Cl)c4)nc(C#Cc4ccc(S(=O)(=O)O)cc4)nc31)[C@H](O)[C@@H]2O [Compound 6],–,–,"Ki (A1AR [8]; species h, agonist radioligand 40, n 3-4, read-out: affinity (KV nM) A1): 383 ± 75 nM; inhibition at 10 µM (A2AAR [9]): 23%; Ki (A3AR [10]): 11.1 ± 1.6 nM; Emax (mA3AR): 95.7 ± 19.1%"
0,255 ± 77,1110 ± 220,3.5 ± 3.2,O[C@@H]1[C@H](O)[C@@H]2C[C@@H]2[C@H]1n1cnc2c(NCc3cccc(Cl)c3)nc(C#Cc3ccc(-c4ccccc4)cc3)nc21 [Compound 13],(48% ± 4%),(12% ± 7%),–
–,–,–,4.1 ± 1.2,O[C@@H]1[C@H](O)[C@@H]2C[C@@H]2[C@H]1n1cnc2c(NCCc3ccccc3)nc(C#Cc3ccccc3)nc21 [Compound 14],(30% ± 8%),(22% ± 5%),–
8,1530 ± 240,3800 ± 780,12.6 ± 4,CNc1nc(C#Cc2ccccc2)nc2c1ncn2[C@H]1[C@H](O)[C@H](O)[C@@H]2C[C@@H]21 [Compound 8],(18% ± 1%),(18% ± 3%),–
